# Data taken from patent publication US9427425B2, “Extracts, fractions and compositions comprising acetogenins and their applications” (LAILA NUTRACEUTICALS, priority 2009, dated 2016).
# Columns and labels:
# TNFα [1] = test: Inhibition of LPS induced TNFα in THP-1 human monocytes (EIA); type: cell-based
# Description: Inhibition of Tumor necrosis factor-α (TNF-α) in vitro by extracts, fractions and compounds of Annona squamosa: The anti-inflammatory activities of extracts, fractions and compounds of Annona squamosa were assessed in a cell based in vitro assay. Briefly, THP-1 human monocytes cells were washed and re-suspended in phenol red free Dulbecco's Modified Eagle's Medium (DMEM) supplemented with 1% fetal Bovine serum (FBS). Equal number of cells was added to each well of a 96-well TC plate and the cells were pretreated for 2 h with various concentrations (ranging from 0.1 to 200 ng/mL; solutions prepared in culture medium from a stock solution containing 50 mg/l mL DMSO of each test compound) of extracts, fractions and compounds of Annona squamosa. The inflammatory response was induced by 100 ng/mL of LPS for 4 h at 37° C. in presence of 5% CO2. The vehicle control culture wells received 0.1% DMSO in culture medium. The cell culture supernatants were collected and assessed for secretory pro-inflammatory cytokine, TNFα. The TNFα concentration was quantitatively measured by highly specific and sensitive Enzyme Immuno Assay (EIA) kit supplied by R&D Systems, USA. The enzyme immuno assay was performed based on the protocol provided by the vendor. The inhibitory concentration for 50% inhibition (IC50) of TNFα was determined from a plot drawn for ingredient concentrations against corresponding TNFα levels. […] Table 1 is a summary of 50% inhibitory (IC50) concentrations of various extracts, fractions and compounds derived from Annona squamosa plant parts in cell based in vitro model.
# [2] = tested on: Freund's Complete Adjuvant induced paw edema; test: Freund's Complete Adjuvant induced arthritis model, paw edema; type: in vivo, Sprague Dawley rats; conditions: 10 mg/kg positive control
# Description: The potent in vitro anti-inflammatory efficacy shown by the Annona squamosa leaf ethyl acetate extract (LI12101; standardized to 0.2% squamocin C) was then tested in an in vivo system using Freund's Complete Adjuvant induced arthritis model of Sprague Dawley rats. The anti-inflammatory efficacy of LI12101 (100 mg/kg body weight per day) was evaluated in Freund's Complete Adjuvant induced arthritis model of Sprague Dawley rats and compared its efficacy with that shown by the positive control group supplemented with Prednisolone at 10 mg/kg body weight. The treatment group rats were supplemented daily with LI12101 or prednisolone. […] Blood samples were collected from each animal at regular intervals and paw volumes were measured by Plethysmography equipment on the day of FCA injection and after 13 days of FCA inoculation. […]
# To further confirm the in vivo anti-inflammatory activity and study the dose dependent effect, the methanol extract of Annona squamosa leaves (LI12100; standardized to 0.24% squamocin C) was evaluated in Freund's Complete Adjuvant induced arthritis model of Sprague Dawley rats. The anti-inflammatory efficacy of LI12100 (at 50 mg/kg and 100 mg/kg body weight per day) was evaluated in FCA induced arthritis model of Sprague Dawley rats and compared its efficacy with that shown by the positive control group supplemented with Prednisolone at 10 mg/kg body weight. […]
# TNFα [3] = test: Serum TNFα in FCA challenged rats (enzyme-immuno assay kit); type: in vivo, Sprague Dawley rats; conditions: 10 mg/kg
# Description: After 14 days of FCA challenge, serum TNFα was quantitatively measured by enzyme-immuno assay kit (R&D Systems, USA). The bars a, b and c represent the levels of the cytokines in groups supplemented with control, LI12101 (100 mg/kg) and prednisolone (10 mg/kg) respectively. Each bar represents mean±SD, N=6. * p<0.05 and ** p<0.005 (vs. control).
# After 14 days of FCA challenge, serum TNFα[…] was quantitatively measured by enzyme-immuno assay kit (R&D Systems, USA). The bars represent the levels of the cytokines in groups supplemented with control, LI12100 at 50 mg/kg body weight, LI12100 at 100 mg/kg body weight and prednisolone (10 mg/kg) respectively. Each bar represents mean±SD, N=6.
# The levels of cytokine tumor necrosis factor alpha (TNFα) were evaluated in blood serum collected 13 days after FCA challenge. The serum cytokine levels were measured using enzyme-immune assay kit supplied by R & D systems, USA.
# The levels of cytokine tumor necrosis factor-alpha (TNFα) were evaluated in blood serum collected 14 days after FCA challenge. The serum cytokine levels were measured using enzyme-immune assay kit supplied by R & D systems, USA.
# TNFα [4] = test: Serum cytokine multiplex assay in FCA induced rats: TNFα; type: in vivo, Sprague Dawley rats; conditions: 10 mg/kg; vehicle control = 1.000
# Description: (§1) Further, the levels of a wide range of cytokine biomarkers were estimated in the serum of the treatment groups supplemented with LI12100 and the control group using multiplex assay (RCYTOMAG 80K) following the instructions provided by the vendor (Millipore Corporation, Billerica, Mass., USA). […] The cytokines modulated by LI12100 include TNFα, IFNγ, IL-1β, IL-2, IL-4, IL-6, IL-13, MCP-1, Rantes and Eotaxin.
# (§2) Further, the levels of a wide range of cytokine biomarkers were estimated in the serum of the treatment groups and the control group using multiplex assay (RCYTOMAG 80K) following the instructions provided by the vendor (Millipore Corporation, Billerica, Mass., USA). […] The cytokines ameliorated by LI12100 include TNFα, IFNγ, IL-1β, IL-2, IL-4, IL-6, IL-13, MCP-1, Rantes and Eotaxin as summarized in Table 3.
# IFNγ = test: Serum cytokine multiplex assay in FCA induced rats: IFNγ; type: in vivo, Sprague Dawley rats; conditions: 10 mg/kg; vehicle control = 1.000
# Description: as §1, §2
# IL-1β = test: Serum cytokine multiplex assay in FCA induced rats: IL-1β; type: in vivo, Sprague Dawley rats; conditions: 10 mg/kg; vehicle control = 1.000
# Description: as §1, §2
# IL-2 = test: Serum cytokine multiplex assay in FCA induced rats: IL-2; type: in vivo, Sprague Dawley rats; conditions: 10 mg/kg; vehicle control = 1.000
# Description: as §1, §2
# IL-4 = test: Serum cytokine multiplex assay in FCA induced rats: IL-4; type: in vivo, Sprague Dawley rats; conditions: 10 mg/kg; vehicle control = 1.000
# Description: as §1, §2
# IL-6 = test: Serum cytokine multiplex assay in FCA induced rats: IL-6; type: in vivo, Sprague Dawley rats; conditions: 10 mg/kg; vehicle control = 1.000
# Description: as §1, §2
# IL-13 = test: Serum cytokine multiplex assay in FCA induced rats: IL-13; type: in vivo, Sprague Dawley rats; conditions: 10 mg/kg; vehicle control = 1.000
# Description: as §1, §2
# MCP-1 = test: Serum cytokine multiplex assay in FCA induced rats: MCP-1; type: in vivo, Sprague Dawley rats; conditions: 10 mg/kg; vehicle control = 1.000
# Description: as §1, §2
# Rantes = test: Serum cytokine multiplex assay in FCA induced rats: Rantes; type: in vivo, Sprague Dawley rats; conditions: 10 mg/kg; vehicle control = 1.000
# Description: as §1, §2
# Eotaxin = test: Serum cytokine multiplex assay in FCA induced rats: Eotaxin; type: in vivo, Sprague Dawley rats; conditions: 10 mg/kg; vehicle control = 1.000
# Description: as §1, §2
# [5] = LPS induced THP-1 human monocytes
molecule,measurement,setting,value
"CCCCCCCCCC[C@@H](O)[C@H]1CC[C@H]([C@H]2CC[C@H]([C@H](O)CCCC[C@H](O)CCCCC[C@@H](O)CC3=C[C@H](C)OC3=O)O2)O1 [10-Hydroxyasimicin, 10-hydroxyasimicin]",TNFα inhibition IC50,TNFα [1]; [5],3.21 ng/mL
"CCCCCCCCCCCCCC[C@H]1O[C@H]1CC[C@@H]1O[C@@H]1CCCCCCCCCCC1=C[C@H](C)OC1=O [Dieposabadelin, dieposabadelin]",TNFα inhibition IC50,TNFα [1]; [5],>5 ng/mL
C[C@]12C=CC(=O)C=C1CC[C@@H]1[C@@H]2[C@@H](O)C[C@@]2(C)[C@H]1CC[C@]2(O)C(=O)CO [Prednisolone],reduction in paw volume vs control,[2]; Example 16 study,71%
same,reduction in paw volume vs control,[2]; Example 17 study,69.2%
same,serum TNFα level vs control,TNFα [3]; Example 16 study,significant reduction
same,serum TNFα level vs control,TNFα [3]; Example 17 study,significant reduction
same,Relative expression of TNFα in serum,TNFα [4],0.754
same,Relative expression of IFNγ in serum,IFNγ,1.496
same,Relative expression of IL-1β in serum,IL-1β,0.848
same,Relative expression of IL-2 in serum,IL-2,0.515
same,Relative expression of IL-4 in serum,IL-4,0.831
same,Relative expression of IL-6 in serum,IL-6,1.377
same,Relative expression of IL-13 in serum,IL-13,3.120
same,Relative expression of MCP-1 in serum,MCP-1,0.802
same,Relative expression of Rantes in serum,Rantes,0.874
same,Relative expression of Eotaxin in serum,Eotaxin,0.992
"CCCCCC(O)CCCCC(O)C1CCC(C2CCC(C(O)CCCCCCCCCCCCC3=CC(C)OC3=O)O2)O1 (centres unmarked) [Squamocin C, squamocin C]",TNFα inhibition IC50,TNFα [1]; [5],0.0249 ng/mL
same,TNFα inhibition IC50,TNFα [1]; THP-1 human monocytes,0.0249 ng/mL
"CCCCCCCCCC[C@H](O)[C@H]1CC[C@H]([C@H]2CC[C@H]([C@H](O)CCCCCCCCCC[C@@H](O)CC3=C[C@H](C)OC3=O)O2)O1 [Squamocin G, squamocin G]",TNFα inhibition IC50,TNFα [1]; [5],0.124 ng/mL
"CCCCCCCCCCC(O)C1CCC(C2CCC(C(O)CCCCCCCCCCCCC3=CC(C)OC3=O)O2)O1 (centres unmarked) [Squamocin L, squamocin L]",TNFα inhibition IC50,TNFα [1]; [5],0.116 ng/mL
"CCCCCCCCCC[C@H](O)[C@@H]1CC[C@@H]([C@H](O)CC[C@@H](O)[C@@H]2CC[C@@H](CCCCCCCCCC3=C[C@@H](C)OC3=O)O2)O1 [Squamostatin D, squamostatin D]",TNFα inhibition IC50,TNFα [1]; [5],4.08 ng/mL
isosquamocin,TNFα inhibition IC50,TNFα [1]; [5],0.080 ng/mL
same,TNFα inhibition,TNFα [1]; at 100 pg/mL,63%
